Data as given in US10570116B2, “1,4-dicarbonyl-piperidyl derivatives” (Merck Patent GmbH, priority 2015, dated 2020).

Tests used:
[1] = target: TNKS1 (Homo sapiens (Human), UniProt O95271); experiment: biochemical; assay type: biochemical; details: GST-tagged Tnks-1 (1023-1327 aa); read-out: IC50 [M] TNKS1 ELISA
[2] = target: TNKS2 (Homo sapiens (Human), UniProt Q9H2K2); experiment: biochemical; assay type: biochemical; details: GST-tagged Tnks-2 (873-1166 aa); read-out: IC50 [M] TNKS2 ELISA
[3] = target: PARP-1 (Homo sapiens (Human), UniProt P09874); experiment: Biochemical activity testing of PARP-1: autoparsylation assay (HTRF); details: His-tagged Parp-1, autoparsylation HTRF
[4] = test system: Tankyrases; experiment: Measurement of cellular inhibition of Tankyrase (Axin2 level, Luminex based assay, DLD1 cells); assay type: cell-based; details: increase of Axin2 level, 24 hours, read-out: EC50 [M] TNKS cellular assay
[5] = test system: DLD-1-cancer cells; details: Huang et al., 2009; cited from earlier work
[6] = target: Tankyrase; details: prior art value; read-out: cellular assay: EC50; cited from earlier work

Chain of PARP-1 (P09874 whole entry): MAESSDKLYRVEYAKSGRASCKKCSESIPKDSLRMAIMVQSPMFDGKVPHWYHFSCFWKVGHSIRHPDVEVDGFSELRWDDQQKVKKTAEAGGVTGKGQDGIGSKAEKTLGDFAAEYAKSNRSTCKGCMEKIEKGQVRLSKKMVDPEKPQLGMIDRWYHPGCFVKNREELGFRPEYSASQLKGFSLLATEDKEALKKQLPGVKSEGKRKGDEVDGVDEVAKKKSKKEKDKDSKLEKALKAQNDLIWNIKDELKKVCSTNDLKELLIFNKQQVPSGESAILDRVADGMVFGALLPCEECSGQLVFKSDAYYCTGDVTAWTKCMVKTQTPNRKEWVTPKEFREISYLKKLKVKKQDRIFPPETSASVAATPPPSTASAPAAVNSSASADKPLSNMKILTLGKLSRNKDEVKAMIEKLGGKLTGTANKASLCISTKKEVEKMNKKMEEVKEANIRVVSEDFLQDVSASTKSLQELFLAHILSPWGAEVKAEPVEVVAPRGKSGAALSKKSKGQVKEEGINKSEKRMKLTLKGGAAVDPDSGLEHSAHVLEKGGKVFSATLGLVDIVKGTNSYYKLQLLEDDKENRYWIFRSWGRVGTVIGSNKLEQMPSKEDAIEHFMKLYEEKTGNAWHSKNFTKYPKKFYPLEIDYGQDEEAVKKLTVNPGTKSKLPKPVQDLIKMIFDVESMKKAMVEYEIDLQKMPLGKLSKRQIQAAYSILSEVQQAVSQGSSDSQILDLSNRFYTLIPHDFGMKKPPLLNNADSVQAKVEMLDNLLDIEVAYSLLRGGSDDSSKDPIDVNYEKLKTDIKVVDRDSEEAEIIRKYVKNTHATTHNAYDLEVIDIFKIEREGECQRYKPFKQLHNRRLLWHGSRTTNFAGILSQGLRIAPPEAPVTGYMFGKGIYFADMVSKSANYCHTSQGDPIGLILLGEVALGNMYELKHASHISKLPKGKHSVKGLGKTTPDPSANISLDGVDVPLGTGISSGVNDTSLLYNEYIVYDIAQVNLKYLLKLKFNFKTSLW

For `Cn1cc(C(=O)C2CCN(C(=O)CC(C)(C)Cc3nc4c(cnn4C)c(=O)[nH]3)CC2)cn1` [Compound C20, 6-{2,2-Dimethyl-4-[4-(1-methyl-1H-pyrazole-4-carbonyl)-piperidin-1-yl]-4-oxo-butyl}-1-methyl-1,5-dihydro-pyrazolo[3,4-d]pyrimidin-4-one], the IC50 [1] was 9.2e-10 M, the IC50 [2] was 7.3e-10 M and the IC50 [3] was > 30000 nM. It also gave an EC50 [4] of 1.9e-08 M.
In the case of `COc1ccc(C(=O)C2CCN(C(=O)CC(C)(C)Cc3nc4c(cnn4C)c(=O)[nH]3)CC2)cn1` [Compound C21, 6-{4-[4-(6-Methoxy-pyridine-3-carbonyl)-piperidin-1-yl]-2,2-dimethyl-4-oxo-butyl}-1-methyl-1,5-dihydro-pyrazolo[3,4-d]pyrimidin-4-one], the IC50 [1] is reported as 3.6e-09 M, the IC50 [2] is reported as 2.1e-09 M and the IC50 [3] is reported as > 30000 nM. It also gave an EC50 [4] of 1.6e-08 M.
In the case of `COc1ncc(C(=O)C2CCN(C(=O)CC(C)(C)Cc3nc4c(cnn4C)c(=O)[nH]3)CC2)cc1C` [Compound C22, 6-{4-[4-(6-Methoxy-5-methyl-pyridine-3-carbonyl)-piperidin-1-yl]-2,2-dimethyl-4-oxo-butyl}-1-methyl-1,5-dihydro-pyrazolo[3,4-d]pyrimidin-4-one], the IC50 [1] is reported as 2.2e-09 M, the IC50 [2] is reported as 1.8e-09 M and the IC50 [3] is reported as > 30000 nM. For the same molecule, the EC50 [4] was 7.9e-09 M.
In the case of `Oc1nc(-c2ccc(C(F)(F)F)cc2)nc2c1CSCC2` [XAV939], the “growth of DLD-1-cancer cells” value [5] is given as “inhibits growth”.
For `COc1ccc(C(=O)C2CCN(CC(=O)N(Cc3nc4c(c(=O)[nH]3)COCC4)CC3CC3)CC2)cc1` [benzoylpiperidine derivative], the EC50 [6] is given as 35 nM.
